In series [1] the test system is Candida albicans MTU 12021. The series can be described thus: Agar dilution MIC, single and combined use. The class given is cell-based. The settings on record: for MIC: Candida albicans, read-out: Minimum Inhibitory Concentration (MIC); for Minimum Inhibitory Concentration (MIC) of the agent combined with Compound 1: combined with Compound 1 at 100 μg/ml; for Minimum Inhibitory Concentration (MIC) of miconazole in combination with the arylmethylamine compound: MIC is that of miconazole, compound at a concentration of 100 mg/ml (so in the source); for synergistic effects of combined use with Compound 1: agent combined with Compound 1, Table 1. The method, then:
(1) The effects of the combined use of Compound 1 with various imidazole antifungal agents against Candida albicans MTU 12021 strain were examined as follows. […] Then, distilled water containing 0.1% by weight of Tween 80 was added thereto to obtain drug solutions having a concentration of from 1 to 1,000 μg/ml.
(§1) 1 ml of each drug solution diluted twice was introduced into a sterilized Petri dish, and 8 ml of Sabouraud agar medium was added to prepare a agar plate. Thus, a series of agar plates for the combinations having various concentrations were prepared.
(§2) Candida albicans MTU 12021 strain cultured on a Sabouraud agar medium for 24 hours, was suspended in a saline, and a cells suspension having a concentration of 2×10^6 spores/ml was prepared by counting the number of spores by a hemacytometer. Then, 50 μl of the cells suspension was inoculated to the above agar plates by means of a microplanter (manufactured by Sakuma Seisakusho). The inoculated agar plates were cultured at 37° C. for 48 hours, whereupon the presence or absence of the growth of the strain was examined.
(§3) Culture medium: Sabouraud agar medium
(§4) Culturing condition: 37° C. for 48 hours
(§5) Strain used: Candida albicans MTU 12021
(In general: Agar dilution tests growth on a series of plates holding different concentrations.)

The test system of the next series is ICR male mice. The series can be described thus: Acute toxicity, oral, mice. It counts as in vivo. The note with it: up to 5,000 mg/kg, ICR male mice of 5 weeks old. From the text: To examine the acute toxicity of the arylmethylamine antifungal agents used in the composition of the present invention, Compounds 1 and 2 were selected, and they were, respectively, suspended in 0.5% methyl cellulose and orally administered to ICR male mice of 5 weeks old (body weight: 26-28 g) at a dose corresponding to the body weight.

Series [2] concerns Candida albicans MTU 12021. The series can be described thus: Disk method (growth inhibition ring). The class given is cell-based. The settings on record: for effects of combined use with miconazole or ketoconazole: same disk method as Example 1(3). The method, then: (3) The effects of the combined use of Compound 1 with miconazole or ketoconazole were examined by a disk method.
Candida albicans MTU 12021 stain was mixed with a Sabouraud agar medium to have a concentration of 5×10^4 spores/ml, and 10 ml thereof was poured into a sterilized Petri dish to obtain an inoculated agar plate.
50 mg of each of Compound 1, miconazole and ketoconazole was impregnated to a disk (Toyo Filter paper of 8 mm in diameter), and the disk was placed on the inoculated agar plate, followed by culturing at 37° C. for 96 hours, whereupon the synergistic effects were evaluated based on the growth inhibition ring thereby appeared.

Series [3] relates to Candida albicans MTU 12021. The series can be described thus: Checker board method, combined use of Compound 1 with miconazole or ketoconazole. On growth: key: +: Growth observed; -: No growth observed. The class given is cell-based. The note with it: for synergistic effects of combined use with Compound 1 (checker board): agent combined with Compound 1, Tables 2 and 3; for Growth: Compound 1 0. As for the experimental part: as §1, §2, §3, §4, §5

The mark [4] stands for this setting: MTU12021, single use, Sabouraud agar, 37° C., 48 hours.
Setting [5] is: Sabouraud agar, 37° C., 48 hours.

We go through 17 compounds from patent US5120735A, “Antifungal composition” (Kaken Pharmaceutical Co., Ltd., priority 1987, dated 1992).

Molecules are shown by their SMILES. Like-named read-outs stand apart in the source and are kept apart here.

As to `C[C@@H]1[C@H](O)[C@@H](C)/C=C/C=C/C=C/C=C/C=C/C=C/C=C/[C@H](O[C@@H]2O[C@H](C)[C@@H](O)[C@H](N)[C@@H]2O)C[C@@H]2O[C@](O)(C[C@@H](O)C[C@@H](O)[C@H](O)CC[C@@H](O)C[C@@H](O)CC(=O)O[C@H]1C)C[C@H](O)[C@H]2C(=O)O` [Amphotericin B], the MIC in series [1] (setting [4]) worked out at 3.13 µg/mL. Moreover, the “Minimum Inhibitory Concentration (MIC) of the agent combined with Compound 1” value in series [1] (setting [5]) was determined as 3.13 µg/mL.

As to `CCC(C)(C)c1ccc(CN(C)Cc2cccc3ccccc23)cc1` [Compound 2, N-methyl-N-4-tert-pentylbenzyl-1-naphthalenemethylamine], the death entry in the series with ICR male mice was “no instance of death”. The MIC in series [1] (setting [4]) is > 100 µg/mL. For the same compound, the “Minimum Inhibitory Concentration (MIC) of miconazole in combination with the arylmethylamine compound” value in series [1] was 3.13 µg/mL.

As to `CN(Cc1ccc(C(C)(C)C)cc1)Cc1ccc(F)c2ccccc12` [Compound 3, N-4-tert-butylbenzyl-N-methyl-4-fluoro-1-naphthalenemethylamine], in series [1] (setting [4]), the MIC is > 100 µg/mL. Further, in series [1], the “Minimum Inhibitory Concentration (MIC) of miconazole in combination with the arylmethylamine compound” value is 6.25 µg/mL.

As to `CN(Cc1ccc(C(C)(C)C)cc1)Cc1csc2ccccc12` [Compound 4, N-4-tert-butylbenzyl-N-methyl-3-benzo[b]thiophenemethylamine], the MIC in series [1] (setting [4]) is > 100 µg/mL. In addition, the “Minimum Inhibitory Concentration (MIC) of miconazole in combination with the arylmethylamine compound” value in series [1] turned out to be 1.56 µg/mL.

On to `CN(Cc1ccc(C(C)(C)C)s1)Cc1cccc2ccccc12` [Compound 5, N-methyl-N-(1-naphthalenemethyl)-5-tert-butyl-2-thiophenemethylamine], for which the MIC in series [1] (setting [4]) was > 100 µg/mL. Besides, the “Minimum Inhibitory Concentration (MIC) of miconazole in combination with the arylmethylamine compound” value in series [1] came to 3.13 µg/mL.

As for `CN(C/C=C/c1ccccc1)Cc1cccc2ccccc12` [Compound 6, (E)-N-cinnamyl-N-methyl-1-naphthalenemethylamine], in series [2], the “effects of combined use with miconazole or ketoconazole” value is “remarkable synergistic effects”. Further, the MIC in series [1] (setting [4]) is > 100 µg/mL. Besides, in series [1], the “Minimum Inhibitory Concentration (MIC) of miconazole in combination with the arylmethylamine compound” value amounted to 1.56 µg/mL.

Turning to `CN(C/C=C/C#CC(C)(C)C)Cc1cccc2ccccc12` [Compound 7, (E)-N-[6,6-dimethyl-2-hepten-4-ynyl)-N-methyl-1-naphthalenemethylamine], in series [2], the “effects of combined use with miconazole or ketoconazole” value is “remarkable synergistic effects”. Moreover, the MIC in series [1] (setting [4]) is > 100 µg/mL. In series [1], the “Minimum Inhibitory Concentration (MIC) of miconazole in combination with the arylmethylamine compound” value amounted to 0.78 µg/mL.

On to `Clc1cc(Cl)c(OCC#CI)cc1Cl` [Haloprozin], for which, in series [1] (setting [4]), the MIC was > 100 µg/mL. Moreover, the “Minimum Inhibitory Concentration (MIC) of the agent combined with Compound 1” value in series [1] (setting [5]) is > 100 µg/mL.

As to `O=C(CCCCCCCCC#CI)Oc1ccccc1` [KP-4249], in series [1] (setting [4]), the MIC was determined as 100 µg/mL. Also, the “Minimum Inhibitory Concentration (MIC) of the agent combined with Compound 1” value in series [1] (setting [5]) worked out at 100 µg/mL.

On to `O=[N+]([O-])c1c(Cl)cccc1-c1c[nH]cc1Cl` [Pyrrolnitrin], for which the MIC in series [1] (setting [4]) is 50 µg/mL. The “Minimum Inhibitory Concentration (MIC) of the agent combined with Compound 1” value in series [1] (setting [5]) turned out to be 50 µg/mL.

Consider `Cc1cc(O)c2c(c1)O[C@@]1(C)CC[C@H]3C(C)(C)CCC[C@]34CO[C@@H]2[C@H]41` [Siccanine], for which, in series [1] (setting [4]), the MIC is 25 µg/mL. Further, in series [1] (setting [5]), the “Minimum Inhibitory Concentration (MIC) of the agent combined with Compound 1” value stood at 25 µg/mL.

Turning to `Clc1ccccc1C(c1ccccc1)(c1ccccc1)n1ccnc1` [clotrimazole], the MIC in series [1] (MTU12021, 48 h) amounted to 12.5 µg/mL. Moreover, the “synergistic effects of combined use with Compound 1” value in series [1] is given as “remarkable synergistic effects”. The “Minimum Inhibitory Concentration (MIC) of the agent combined with Compound 1” value in series [1] (setting [5]) came out at 3.13 µg/mL.

Consider `Clc1ccc(COC(Cn2ccnc2)c2ccc(Cl)cc2Cl)cc1` (centres unmarked) [econazole], for which the MIC in series [1] (setting [4]) was 25 µg/mL. Also, the “synergistic effects of combined use with Compound 1” value in series [1] is recorded as “remarkable synergistic effects”. The “Minimum Inhibitory Concentration (MIC) of the agent combined with Compound 1” value in series [1] (setting [5]) was 1.56 µg/mL.

With `Clc1ccc(C(Cn2ccnc2)OCc2c(Cl)cccc2Cl)c(Cl)c1` (centres unmarked) [isoconazole], the MIC in series [1] (setting [4]) is 25 µg/mL. Besides, the “synergistic effects of combined use with Compound 1” value in series [1] is “remarkable synergistic effects”. In addition, in series [1] (setting [5]), the “Minimum Inhibitory Concentration (MIC) of the agent combined with Compound 1” value was 1.56 µg/mL.

As to `CC(=O)N1CCN(c2ccc(OCC3COC(Cn4ccnc4)(c4ccc(Cl)cc4Cl)O3)cc2)CC1` (centres unmarked) [ketoconazole, reference compound], the “synergistic effects of combined use with Compound 1 (checker board)” value in series [3] was “Remarkable syntergistic effects”. Further, the Growth entry in series [3] (ketoconazole 0.1 μg/ml), in series [3] (ketoconazole 0.2 μg/ml), in series [3] (ketoconazole 0.39 μg/ml), in series [3] (ketoconazole 0.78 μg/ml), in series [3] (ketoconazole 1.56 μg/ml) and in series [3] (ketoconazole 3.13 μg/ml) was “+” each time. Besides, the Growth entry is “+” in series [3] (ketoconazole 12.5 μg/ml), “-” in series [3] (ketoconazole 25 μg/ml), “-” in series [3] (ketoconazole 50 μg/ml) and “-” in series [3] (ketoconazole 100 μg/ml).

As for `Clc1ccc(COC(Cn2ccnc2)c2ccc(Cl)cc2Cl)c(Cl)c1` (centres unmarked) [miconazole, reference compound], the “growth inhibition ring, disk alone” value in series [2] (50 mg per disk (so in the source), 37° C., 96 hours, FIG. 2) is “a complete inhibitory ring with a small diameter and an incomplete inhibitory ring with a large diameter”. The “synergistic effects of combined use with Compound 1 (checker board)” value in series [3] is given as “Remarkable syntergistic effects”. Further, the Growth result in series [3] (miconazole 0.39 μg/ml), in series [3] (miconazole 0.78 μg/ml), in series [3] (miconazole 1.56 μg/ml), in series [3] (miconazole 3.13 μg/ml), in series [3] (miconazole 12.5 μg/ml) and in series [3] (miconazole 25 μg/ml) was “+” each time. Further, the Growth result in series [3] (miconazole 50 μg/ml) and in series [3] (miconazole 100 μg/ml) was “-” throughout. In addition, in series [1] (MTU12021, 48 h), the MIC came to 25 µg/mL. The “synergistic effects of combined use with Compound 1” value in series [1] is given as “remarkable synergistic effects”. In series [1] (setting [5]), the “Minimum Inhibitory Concentration (MIC) of the agent combined with Compound 1” value was determined as 1.56 µg/mL.

For `Clc1ccc(CO/N=C(\Cn2ccnc2)c2ccc(Cl)cc2Cl)c(Cl)c1` [oxiconazole], the “synergistic effects of combined use with Compound 1” value in series [1] is “remarkable synergistic effects”.
